Results on 6 compounds are retold here after patent US10676504B2 (Colorado State University Research Foundation, priority 2015, dated 2020).

One test deals with T1, HDAC3 (Homo sapiens, UniProt O15379).
T1 construct: The recombinant, full-length HDAC protein (BPS Biosciences) was incubated; purchased BPS Biosciences
Nature of the test: HDAC biochemical assay of O10-O12 (Table O1).

For test [1], the target named is T2, HDAC1 (Homo sapiens, UniProt Q13547). Particulars: read-out: HDAC1 IC50; Table O1.
T2 sequence (Q13547 whole entry): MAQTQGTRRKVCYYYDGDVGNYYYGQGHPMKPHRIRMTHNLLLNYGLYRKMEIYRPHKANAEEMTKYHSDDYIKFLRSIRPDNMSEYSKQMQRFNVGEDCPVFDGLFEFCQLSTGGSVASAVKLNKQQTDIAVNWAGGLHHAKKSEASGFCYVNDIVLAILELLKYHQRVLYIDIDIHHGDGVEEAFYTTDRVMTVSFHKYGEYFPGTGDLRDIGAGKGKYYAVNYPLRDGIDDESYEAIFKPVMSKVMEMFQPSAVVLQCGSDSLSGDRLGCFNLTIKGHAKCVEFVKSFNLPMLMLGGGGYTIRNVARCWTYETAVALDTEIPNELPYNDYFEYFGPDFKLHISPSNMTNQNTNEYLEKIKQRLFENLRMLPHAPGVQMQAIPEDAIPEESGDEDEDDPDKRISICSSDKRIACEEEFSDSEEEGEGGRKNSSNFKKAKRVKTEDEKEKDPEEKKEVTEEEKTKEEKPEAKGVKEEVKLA
Test [2] has as its target T3, HDAC6 (Homo sapiens, UniProt Q9UBN7).
T3 sequence (Q9UBN7 1-1215): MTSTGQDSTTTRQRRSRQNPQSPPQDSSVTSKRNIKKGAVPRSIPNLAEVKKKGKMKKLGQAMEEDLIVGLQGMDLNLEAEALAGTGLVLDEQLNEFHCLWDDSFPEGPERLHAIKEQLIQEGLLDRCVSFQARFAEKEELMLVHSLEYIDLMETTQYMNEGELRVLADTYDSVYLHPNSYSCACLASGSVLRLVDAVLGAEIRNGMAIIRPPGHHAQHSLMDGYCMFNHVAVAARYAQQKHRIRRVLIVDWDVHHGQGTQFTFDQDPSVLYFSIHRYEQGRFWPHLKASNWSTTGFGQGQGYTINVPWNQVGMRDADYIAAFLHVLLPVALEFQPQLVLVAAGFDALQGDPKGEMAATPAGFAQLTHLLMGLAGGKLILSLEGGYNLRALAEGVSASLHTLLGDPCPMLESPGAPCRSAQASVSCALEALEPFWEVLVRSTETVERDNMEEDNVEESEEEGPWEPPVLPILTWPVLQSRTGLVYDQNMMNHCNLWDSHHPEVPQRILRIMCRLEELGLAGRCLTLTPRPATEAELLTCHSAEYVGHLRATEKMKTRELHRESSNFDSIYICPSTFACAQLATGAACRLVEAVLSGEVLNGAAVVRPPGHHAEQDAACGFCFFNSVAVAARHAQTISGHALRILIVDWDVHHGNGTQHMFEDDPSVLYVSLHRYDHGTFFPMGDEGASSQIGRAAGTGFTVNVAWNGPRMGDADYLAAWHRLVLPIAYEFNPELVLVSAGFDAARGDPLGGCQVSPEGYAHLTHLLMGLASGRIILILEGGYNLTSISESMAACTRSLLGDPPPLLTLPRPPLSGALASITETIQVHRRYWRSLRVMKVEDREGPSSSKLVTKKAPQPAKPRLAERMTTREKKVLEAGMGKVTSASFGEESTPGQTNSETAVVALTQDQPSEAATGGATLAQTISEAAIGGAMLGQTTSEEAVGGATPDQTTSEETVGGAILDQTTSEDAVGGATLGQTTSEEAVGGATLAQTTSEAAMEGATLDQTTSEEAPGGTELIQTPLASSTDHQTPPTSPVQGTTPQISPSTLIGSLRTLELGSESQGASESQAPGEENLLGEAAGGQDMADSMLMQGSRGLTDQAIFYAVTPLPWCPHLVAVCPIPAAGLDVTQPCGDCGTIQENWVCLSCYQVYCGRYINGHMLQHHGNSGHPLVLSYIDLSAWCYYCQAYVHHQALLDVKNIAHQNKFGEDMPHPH
Particulars: read-out: HDAC6 IC50; Table O1; 200 μM TCEP.

A further test addresses HDAC7 (Homo sapiens, UniProt Q8WUI4). Conditions: read-out: HDAC7 IC50; Table O1.
Test [3] has as its target T4, HDAC8 (Homo sapiens, UniProt Q9BY41).
T4 sequence (Q9BY41 1-377): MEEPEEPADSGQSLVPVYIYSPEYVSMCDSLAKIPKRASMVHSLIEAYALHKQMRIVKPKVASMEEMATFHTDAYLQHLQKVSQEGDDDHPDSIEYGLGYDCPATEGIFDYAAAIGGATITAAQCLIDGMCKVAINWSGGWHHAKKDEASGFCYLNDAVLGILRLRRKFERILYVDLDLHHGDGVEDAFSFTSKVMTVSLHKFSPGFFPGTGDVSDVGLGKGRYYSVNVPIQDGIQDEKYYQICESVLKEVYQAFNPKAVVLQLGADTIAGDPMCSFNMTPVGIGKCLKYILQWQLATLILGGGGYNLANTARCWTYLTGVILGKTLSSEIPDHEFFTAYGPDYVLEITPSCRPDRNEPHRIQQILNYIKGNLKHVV
Conditions: read-out: HDAC8 IC50; Table O1.

Test [4] has as its target T5, HDAC2 (Homo sapiens, UniProt Q92769). Put plainly: HDAC biochemical assay of O10-O12 (Table O1). Set-up: The recombinant, full-length HDAC protein (BPS Biosciences) was incubated; purchased BPS Biosciences.
Test [5] deals with human malignant melanoma cell lines. Nature of the test: melanoma cell viability, ATP content (Cell TiterGlo). The class given is cell-based. Particulars: range over panel of melanoma cell lines, FIG. 4, read-out: IC50 melanoma cell proliferation. For orientation: Cellular ATP, detected with luciferase, serves as a proxy for viable cell number.
The next test deals with HDACs 1-3. Put plainly: HDAC biochemical assay of P5-P12, summary statements.
In test [6] the target is T2, HDAC1. Conditions: read-out: HDAC inhibitory activity (Ki) HDAC1; Table 2.
Text: (§1) To measure the inhibitory effect on deacetylase function in vitro, a continuous kinetic biochemical assay miniaturized to 384-well plate format was optimized.
(§2) Fluorescence measurements were obtained in real-time on a Varioskan microtiter plate reader (Thermo).
Test [7] relates to NCI-60 cancer cell lines. Particulars: five-dose.
Text: (§3) All compounds submitted for screening were initially tested at a single high dose (10^-5 M) against the fill NCI 60 cell panel. Only compounds which satisfied pre-determined threshold inhibition criteria in a minimum number of cell lines progressed to a second round of testing utilizing a more comprehensive 5-dose inhibition assay. The threshold inhibition criteria for progression to the 5-dose assays were selected to efficiently capture compounds with anti-proliferative activity based on historical DTP screening data.
(§4) Concentrations for G150, IC50, TGI, and LC50 were calculated for all cell lines tested, and heat plots were prepared.
In test [8] the test system is melanoma cell lines. Particulars: five-dose.
Text: as §3, §4
A further test relates to renal cancer cell lines. Conditions: five-dose.
The test system of test [9] is NCI-60 cancer cell lines. Nature of the test: cells.
Text: as §3, §4
Test [10] concerns melanoma cell lines. Put plainly: cells. Conditions: read-out: Average Concentration (M), LC50, Melanoma.
Text: as §3, §4
Test [11] has as its target T5, HDAC2. The class given is biochemical. Set-up: The recombinant, full-length HDAC protein (BPS Biosciences) was incubated; purchased BPS Biosciences. Particulars: read-out: HDAC inhibitory activity (Ki) HDAC2.
Text: as §1, §2
The target in test [12] is T2, HDAC1. Put plainly: HDAC biochemical assay of P5-P12 (Table P1). Set-up: The recombinant, full-length HDAC protein (BPS Biosciences) was incubated; purchased BPS Biosciences.
Test [13] deals with T5, HDAC2. Put plainly: HDAC biochemical assay of P5-P12 (Table P1). Set-up: The recombinant, full-length HDAC protein (BPS Biosciences) was incubated; purchased BPS Biosciences.
For test [14], the target named is T4, HDAC8. Put plainly: HDAC biochemical assay of P5-P12 (Table P1). Set-up: The recombinant, full-length HDAC protein (BPS Biosciences) was incubated; purchased BPS Biosciences.
The target of a further test is T6, HDAC3/NCor2 (Homo sapiens, UniProt O15379).
T6 construct: recombinant, full-length HDAC protein; purchased BPS Biosciences
T6 sequence (O15379 whole entry): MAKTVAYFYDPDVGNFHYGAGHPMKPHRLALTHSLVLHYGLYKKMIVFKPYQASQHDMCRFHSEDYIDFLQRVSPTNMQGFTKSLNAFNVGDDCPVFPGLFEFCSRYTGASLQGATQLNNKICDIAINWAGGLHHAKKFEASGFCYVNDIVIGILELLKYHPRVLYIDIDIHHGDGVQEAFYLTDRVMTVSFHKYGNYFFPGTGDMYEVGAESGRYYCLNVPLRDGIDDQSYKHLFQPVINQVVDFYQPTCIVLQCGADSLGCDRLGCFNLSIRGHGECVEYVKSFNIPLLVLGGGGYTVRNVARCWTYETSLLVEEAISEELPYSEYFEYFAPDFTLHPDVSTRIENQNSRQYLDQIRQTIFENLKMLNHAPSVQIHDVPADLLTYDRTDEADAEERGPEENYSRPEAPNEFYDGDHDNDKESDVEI
T6 sequence (Q9Y618 395-489 partner limits assumed): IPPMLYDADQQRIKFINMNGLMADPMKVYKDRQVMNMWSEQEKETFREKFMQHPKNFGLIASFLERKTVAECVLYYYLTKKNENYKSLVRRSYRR
Put plainly: HDAC biochemical assay (Example 16).

Test [15] deals with T2, HDAC1. Put plainly: HDAC biochemical assay (Example 16). Set-up: recombinant, full-length HDAC protein; purchased BPS Biosciences. Particulars: Table 4; reducing conditions (TCEP 200 μM).
Experimental: (§5) Thus, small-molecule inhibitors were arrayed at twelve-point dose-response (3-fold increments) in 384-well library plates and transferred by robotic pin device to replicate assay plates containing assay buffer under reducing conditions (TCEP 200 μM). A liquid handling device then transferred a tripeptide substrate terminating in acetyl-lysine and amide conjugated to 4-methyl-7-aminocoumarin (AMC), recombinant human histone deacetylase (BPS Bioscience, San Diego, Calif.), and recombinant human trypsin (Sigma-Aldrich, St. Louis, Mo.). Following deacetylase hydrolysis of acetyl-lysine, trypsin cleavage liberated the AMC fluorophore. Kinetic (fluorescence per unit time) and end-point (total fluorescence) data were captured by a multilabel plate reader. Replicate data were analyzed by curve-fit using logistic regression (Spotfire Decision-Site).
For test [16], the target named is T5, HDAC2. Nature of the test: HDAC biochemical assay (Example 16). The arrangement: recombinant, full-length HDAC protein; purchased BPS Biosciences. Conditions: Table 4; reducing conditions (TCEP 200 μM).
Experimental: as §5
Test [17] addresses T3, HDAC6. Put plainly: HDAC biochemical assay (Example 16). Conditions: Table 4; reducing conditions (TCEP 200 μM). The arrangement: recombinant, full-length HDAC protein; purchased BPS Biosciences.
Experimental: as §5
For test [18], the target named is T5, HDAC2. Put plainly: HDAC2 inhibition, trypsin-coupled kinetic fluorescence homogeneous assay (Example 10). Type of test: biochemical. Set-up: The recombinant, full-length HDAC protein (BPS Biosciences) was incubated; purchased BPS Biosciences. Conditions: Conc (uM); logistic curve fit of activity versus concentration; some fits reached max iterations; read-out: X50.
Experimental: as §1, §2
A biochemical study of HDAC2 inhibition was carried out using the trypsin-coupled, kinetic fluorescence homogeneous assay described above.

The next test deals with human HDACs. Put plainly: HDAC biochemical assay (Example 16), summary statements over isoforms. On the procedure: The inhibitory effect of compounds on deacetylase isoenzyme function was determined in vitro using an optimized homogenous assay performed in 384-well plate format. […] Data are analyzed on a plate-by-plate basis for the linear range of fluorescence over time. Data from the plate capture corresponding to the mid-linear range is imported into analytical software and annotated with well identity and compound concentration (Spotfire DecisionSite). Replicate experimental data from incubations with inhibitor are normalized to control, solvent-only wells and IC-50 is determined by logistic regression.
Thus, small-molecule inhibitors were arrayed at twelve-point dose-response (3-fold increments) in 384-well library plates and transferred by robotic pin device to replicate assay plates containing assay buffer under reducing conditions (TCEP 200 μM). A liquid handling device then transferred a tripeptide substrate terminating in acetyl-lysine and amide conjugated to 4-methyl-7-aminocoumarin (AMC), recombinant human histone deacetylase (BPS Bioscience, San Diego, Calif.), and recombinant human trypsin (Sigma-Aldrich, St. Louis, Mo.). […] Kinetic (fluorescence per unit time) and end-point (total fluorescence) data were captured by a multilabel plate reader. Replicate data were analyzed by curve-fit using logistic regression (Spotfire Decision-Site). […]

Read-outs that look alike come from different tables or passages of the source.

T5 sequence (Q92769 whole entry): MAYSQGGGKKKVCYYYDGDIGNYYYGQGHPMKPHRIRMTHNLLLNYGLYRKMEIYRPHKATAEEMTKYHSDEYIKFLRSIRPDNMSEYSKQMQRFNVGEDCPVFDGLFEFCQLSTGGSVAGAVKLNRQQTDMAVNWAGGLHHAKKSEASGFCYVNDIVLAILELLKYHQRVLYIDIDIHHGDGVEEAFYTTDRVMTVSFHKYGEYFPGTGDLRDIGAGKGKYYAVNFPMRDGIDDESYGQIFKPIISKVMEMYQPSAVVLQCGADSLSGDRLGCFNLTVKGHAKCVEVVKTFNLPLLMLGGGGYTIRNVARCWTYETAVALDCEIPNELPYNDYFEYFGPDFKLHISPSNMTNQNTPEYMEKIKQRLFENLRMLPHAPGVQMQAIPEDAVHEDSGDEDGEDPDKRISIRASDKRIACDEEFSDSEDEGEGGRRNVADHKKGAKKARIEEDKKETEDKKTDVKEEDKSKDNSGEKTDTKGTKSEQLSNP
T1 sequence (O15379 whole entry): as the sequence (O15379 whole entry) above
T1 sequence (Q9Y618 395-489 partner limits assumed): as the sequence (Q9Y618 395-489 partner limits assumed) above
Sequence of HDAC7 (Q8WUI4 518-952 limits assumed): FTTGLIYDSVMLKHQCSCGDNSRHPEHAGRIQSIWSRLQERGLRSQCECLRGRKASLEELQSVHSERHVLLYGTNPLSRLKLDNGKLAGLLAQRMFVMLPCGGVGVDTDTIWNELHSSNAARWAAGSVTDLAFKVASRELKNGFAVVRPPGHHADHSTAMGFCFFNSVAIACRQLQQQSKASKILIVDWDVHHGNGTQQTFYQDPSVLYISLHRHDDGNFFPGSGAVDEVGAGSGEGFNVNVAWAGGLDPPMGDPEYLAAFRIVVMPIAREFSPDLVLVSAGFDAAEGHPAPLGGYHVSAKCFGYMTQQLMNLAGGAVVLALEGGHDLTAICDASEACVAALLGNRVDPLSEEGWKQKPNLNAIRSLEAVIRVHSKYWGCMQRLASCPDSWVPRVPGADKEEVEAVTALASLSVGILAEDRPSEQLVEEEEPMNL
Experimental for HDAC3/NCor2: as §5

For `CC(C)[C@@H]1NC(=O)[C@]2(C)CSC(=N2)c2coc(n2)CNC(=O)C[C@@H](/C=C/CCS)OC1=O` [Compound O11, Thiazoline-Oxazole Thiol Analog], the IC50 on HDAC3 was found to be 7.2 nM; at HDAC1 [1], 4.4 nM; at HDAC6 [2], 98 nM; on HDAC7, 960 nM; on HDAC8 [3] it was 1200 nM; on HDAC2 [4] it was 20 nM.
In the case of `CCCCCCCC(=O)SCCC=CC1CC(=O)NCc2nc(co2)C2=NC(C)(CS2)C(=O)NC(C(C)C)C(=O)O1` (stereo not drawn) [Compound O12, Thiazoline-Oxazole Thioester Analog], the IC50 against HDAC3 stood at 1900 nM; at HDAC1 [1] it was 950 nM; at HDAC6 [2], 1100 nM; on HDAC2 [4], 2100 nM.
As for `CCCCCCCC(=O)SCC/C=C/[C@@H]1CC(=O)NCc2nc(cs2)C2=N[C@@](C)(CS2)C(=O)N[C@@H](C(C)C)C(=O)O1` [Largazole, largazole, reference compound], the IC50 was 45 to 315 nM in test [5]; 230 nM on HDAC1 [1]; 900 nM at HDAC2 [4]; 10.1 nM on HDAC1 [12]; 18.6 nM on HDAC2 [13]; 1070 nM at HDAC8 [14]. Further, the “IC50 range in words for HDACs 1-3” value with HDACs 1-3 is “high nM-μM range”. In addition, the Ki (usually the equilibrium dissociation constant of an inhibitor or competing ligand from its target) is 20 nM at HDAC1 [6] and 21 nM at HDAC2 [11]. Further, the “Percent of Cell Lines Impacted (%), GI50” value with NCI-60 cancer cell lines [7] (50% Growth Inhibition) is given as 100%. Also, the “Percent of Cell Lines Impacted (%), LC50” value with NCI-60 cancer cell lines [7] (50% Lethal Concentration reached) was found to be 7%. For the same compound, the “Percent of Cell Lines Impacted (%), TGI” value with NCI-60 cancer cell lines [7] (Total Growth Inhibition) is given as 58%. Also, the “Total Impacted Cell Lines (n), TGI” value in the test on NCI-60 cancer cell lines [7] (Total Growth Inhibition) is given as 34. The “Percent of Cell Lines Impacted (%), LC50, Melanoma” value with melanoma cell lines [8] is on record as 33%. In addition, in the test with renal cancer cell lines, the “Percent of Cell Lines Impacted (%), LC50, Renal” value came out at 14%. For the same compound, the GI50 with NCI-60 cancer cell lines [9] (read-out: Average Concentration (M), GI50) was found to be 2.1e-06 M; in the test on NCI-60 cancer cell lines [9] (read-out: GI50 concentrations (M), order of magnitude), 1e-06 M. Besides, the CC50 in the test on melanoma cell lines [10] was 3.55e-06 M.
For `CC(C)C1NC(=O)C2(C)COC(=N2)c2coc(n2)CNC(=O)CC(C=CCCSSCCC=CC2CC(=O)NCc3nc(co3)C3=NC(C)(CO3)C(=O)NC(C(C)C)C(=O)O2)OC1=O` (stereo not drawn) [Oxazoline-oxazole (39b), Disulfide Dimer 39b], the figures for the IC50 against HDAC3/NCor2, on HDAC1 [15] and on HDAC2 [16] were 1.5 nM, 0.69 nM and 1.7 nM, respectively.
With `C[C@@]12CSC(=N1)c1csc(n1)CNC(=O)C[C@@H](/C=C/CCS)OC(=O)[C@@H]1CCCN1C2=O` [Proline substitution (4)], the IC50 was 580 nM against HDAC3/NCor2 (Table 4, reducing conditions (TCEP 200 μM)); 110 nM on HDAC1 [15]; 800 nM on HDAC2 [16]; 13000 nM at HDAC6 [17]; 0.773 µM on HDAC2 [18].
For `CC(C)[C@@H]1NC(=O)[C@]2(C)CSC(=N2)c2cccc(n2)CNC(=O)C[C@@H](/C=C/CCS)OC1=O` [Thiazole-pyridine substitution (29b)], the IC50 was 1.1 nM on HDAC3/NCor2 and 29 nM on HDAC6 [17]. The “activity against Class I HDACs” value in the test on human HDACs is on record as “sub-nanomolar”.
